This is an account of results in patent US9920035B2, “Heterocyclic compounds, medicaments containing said compounds, use thereof and processes for the preparation thereof” (Boehringer Ingelheim International GmbH, priority 2011, dated 2018).

The experiment deals with T1, epithelial sodium channel (ENaC) (Mus musculus, UniProt Q61180+Q9WU38+Q9WU39).
T1 construct: Mouse kidney M-1 cells were cultivated in DMEM containing 5% FCS and 5 μM dexamethasone; endogenous in cells; host or cells: mouse kidney M-1 cells
T1 sequence (Q61180 1-699): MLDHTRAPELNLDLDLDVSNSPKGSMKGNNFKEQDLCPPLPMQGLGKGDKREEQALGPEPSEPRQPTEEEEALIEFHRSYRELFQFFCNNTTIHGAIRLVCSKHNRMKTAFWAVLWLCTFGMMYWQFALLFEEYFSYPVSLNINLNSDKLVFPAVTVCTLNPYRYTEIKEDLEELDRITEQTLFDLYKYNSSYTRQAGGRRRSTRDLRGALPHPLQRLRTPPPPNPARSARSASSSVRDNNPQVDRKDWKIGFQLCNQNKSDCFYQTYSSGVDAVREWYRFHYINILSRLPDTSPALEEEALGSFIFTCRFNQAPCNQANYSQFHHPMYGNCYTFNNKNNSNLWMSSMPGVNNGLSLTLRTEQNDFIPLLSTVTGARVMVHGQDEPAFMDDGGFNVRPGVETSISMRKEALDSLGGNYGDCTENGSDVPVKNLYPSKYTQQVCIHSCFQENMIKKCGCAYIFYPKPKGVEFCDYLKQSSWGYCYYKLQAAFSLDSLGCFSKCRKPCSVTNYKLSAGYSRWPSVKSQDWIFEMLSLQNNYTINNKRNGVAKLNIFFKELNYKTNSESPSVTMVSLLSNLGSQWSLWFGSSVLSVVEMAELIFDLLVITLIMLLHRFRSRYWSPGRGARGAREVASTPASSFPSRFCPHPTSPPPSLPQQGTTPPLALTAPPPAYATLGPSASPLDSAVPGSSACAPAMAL
T1 sequence (Q9WU38 1-638): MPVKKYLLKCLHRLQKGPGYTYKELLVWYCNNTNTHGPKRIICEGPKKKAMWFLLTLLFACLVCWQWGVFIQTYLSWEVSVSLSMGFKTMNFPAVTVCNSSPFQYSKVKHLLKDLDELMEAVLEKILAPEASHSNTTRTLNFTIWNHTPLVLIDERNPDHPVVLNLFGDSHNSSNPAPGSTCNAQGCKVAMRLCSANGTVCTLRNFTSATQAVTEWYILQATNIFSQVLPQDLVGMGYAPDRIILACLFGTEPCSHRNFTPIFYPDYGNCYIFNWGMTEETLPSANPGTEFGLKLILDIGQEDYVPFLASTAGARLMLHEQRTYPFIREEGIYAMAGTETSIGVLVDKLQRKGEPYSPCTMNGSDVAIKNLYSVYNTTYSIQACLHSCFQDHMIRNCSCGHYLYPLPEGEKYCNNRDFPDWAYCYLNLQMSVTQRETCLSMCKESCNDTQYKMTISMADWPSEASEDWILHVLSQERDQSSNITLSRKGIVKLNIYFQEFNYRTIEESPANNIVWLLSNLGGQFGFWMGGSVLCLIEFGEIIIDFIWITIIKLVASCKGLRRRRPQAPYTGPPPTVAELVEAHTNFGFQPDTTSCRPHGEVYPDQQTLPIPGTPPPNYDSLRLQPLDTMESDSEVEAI
T1 sequence (Q9WU39 1-655): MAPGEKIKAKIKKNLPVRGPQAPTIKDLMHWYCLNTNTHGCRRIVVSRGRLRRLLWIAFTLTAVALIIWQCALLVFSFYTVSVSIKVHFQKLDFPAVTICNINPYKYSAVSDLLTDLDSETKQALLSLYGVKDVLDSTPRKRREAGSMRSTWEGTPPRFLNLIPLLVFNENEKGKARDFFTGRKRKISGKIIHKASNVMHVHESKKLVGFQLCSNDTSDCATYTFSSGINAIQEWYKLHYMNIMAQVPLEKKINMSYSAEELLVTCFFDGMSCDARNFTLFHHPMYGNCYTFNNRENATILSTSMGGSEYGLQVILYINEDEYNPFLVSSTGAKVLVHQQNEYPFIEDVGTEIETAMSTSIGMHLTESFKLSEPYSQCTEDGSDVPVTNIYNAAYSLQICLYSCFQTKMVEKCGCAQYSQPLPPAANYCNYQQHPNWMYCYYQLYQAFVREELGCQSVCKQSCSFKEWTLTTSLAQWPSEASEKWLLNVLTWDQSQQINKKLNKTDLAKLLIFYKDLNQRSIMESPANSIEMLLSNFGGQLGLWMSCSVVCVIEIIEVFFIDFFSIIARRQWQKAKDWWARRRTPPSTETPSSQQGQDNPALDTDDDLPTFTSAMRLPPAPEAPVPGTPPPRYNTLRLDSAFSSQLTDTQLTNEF
Nature of the experiment: Ussing chamber: inhibition of amiloride sensitive short circuit current (I_sc) in M-1 cells. The class given is cell-based. The note with it: Mouse kidney M-1 cells on transwell filters, Ussing chamber at 37° C., compound added to the apical solution. On the procedure:
Mouse kidney M-1 cells were cultivated in DMEM containing 5% FCS and 5 μM dexamethasone for 10 to 12 days on polyester transwell filters. Filters were inserted into a teflon-coated well-plate which fit into the in-house ussing chamber system. Prior to measurement the medium of M-1 cells was replaced with Caco-2 transport buffer (Invitrogen, Germany). During measurements, the Ussing chamber temperature was kept at 37° C. Short circuit currents (I_sc) were measured in the voltage-clamp mode using an in-house built amplifier (Boehringer Ingelheim, Biberach) with the software package Lab View for data acquisition and analysis. The transepithelial electrical resistance (TEER) was determined by the application of voltage steps of ±5 mV every 5 sec. Compounds were administered at a final concentration of 3 μM or at increasing concentrations (1-3-10 μM) to the apical solution. At the end of each experiment the amiloride sensitive I_SC was measured by adding 3 μM amiloride to the apical compartment. Results are expressed as inhibition in percent of the amiloride effect or as IC50. Results are listed in tables 1 to 5 and further examples listed above.

With `COC(=O)CCC(=O)N1CCC(CNC(N)=NC(=O)c2nc(Cl)c(N)nc2N)(c2ccccc2)CC1` [Example 1.47], the 50% inhibitory concentration (IC50) (usually the concentration at which inhibition is half-maximal) was determined as 0.029 µM.

In turn, `CC(C)(C)OC(=O)NCCNC(=O)N1CCC(CCc2ccccc2)(CNC(N)=NC(=O)c2nc(Cl)c(N)nc2N)CC1` [Example 1.33] had an IC50 of 0.007 µM.

Compound `CC(C)NC(=O)N1CCC(CNC(N)=NC(=O)c2nc(Cl)c(N)nc2N)(c2ccc3c(c2)OCO3)CC1` [Example 1.44] had an IC50 of 0.046 µM.

`CC(C)(C)OC(=O)NCCC(=O)N1CCC(CCc2ccccc2)(CNC(N)=NC(=O)c2nc(Cl)c(N)nc2N)CC1` [Example 1.22] came in with an IC50 of 0.037 µM.

Compound `C[N+]1(C)CCC(CCc2ccccc2)(CNC(N)=NC(=O)c2nc(Cl)c(N)nc2N)CC1` [Example 1.15] registered an IC50 of 0.091 µM.

Compound `CCNC(=O)N1CCC(CCc2ccccc2)(CN/C(N)=N/C(=O)c2nc(Cl)c(N)nc2N)CC1` [Example 1.12] registered an IC50 of 0.012 µM.

In turn, `NC(=O)N1CCC(CCc2ccccc2)(CNC(N)=NC(=O)c2nc(Cl)c(N)nc2N)CC1` [Example 1.4] had an IC50 of 0.027 µM.

On to `NCCNC(=O)N1CCC(CNC(N)=NC(=O)c2nc(Cl)c(N)nc2N)(Cc2ccccc2)CC1` [Example 2.12], for which the IC50 came out at 0.017 µM.

The compound `CC(C)NC(=O)N1CCC(CNC(N)=NC(=O)c2nc(Cl)c(N)nc2N)(Cc2ccccc2)CC1` [Example 1.8] registered an IC50 of 0.017 µM.

Compound `C[N+](C)(C)CC(=O)N1CCC(CCc2ccccc2)(CNC(N)=NC(=O)c2nc(Cl)c(N)nc2N)CC1` [Example 1.49] returned an IC50 of 0.022 µM.

As to `CN(C)CCCNC(=O)N1CCC(CNC(N)=NC(=O)c2nc(Cl)c(N)nc2N)(Cc2ccccc2)CC1` [Example 1.38], inhibition was half-maximal at 0.042 µM (IC50).

Take `NCCCCC(=O)N1CCC(CNC(N)=NC(=O)c2nc(Cl)c(N)nc2N)(Cc2ccccc2)CC1` [Example 2.8]: the IC50 was found to be 0.061 µM.

On to `CC(C)N1CCC(CCc2ccccc2)(CNC(N)=NC(=O)c2nc(Cl)c(N)nc2N)CC1` [Example 1.7], for which inhibition was half-maximal at 0.063 µM (IC50).

In the case of `NCCNC(=O)N1CCC(CCc2ccccc2)(CNC(N)=NC(=O)c2nc(Cl)c(N)nc2N)CC1` [Example 2.7], half-maximal inhibition (IC50) required 0.016 µM.

As for `N/C(=N\C(=O)c1nc(Br)c(N)nc1N)NCC1(CCc2ccccc2)CCN(C(=O)CCC(=O)O)CC1` [Example 11, 4-{4-[N′-(3,5-Diamino-6-bromo-pyrazine-2-carbonyl)-guanidinomethyl]-4-phenethyl-piperidin-1-yl}-4-oxo-butyric acid], half-maximal inhibition (IC50) was put at 0.502 µM.

Consider `COCC(=O)N1CCC(CCc2ccccc2)(CNC(N)=NC(=O)c2nc(Cl)c(N)nc2N)CC1` [Example 1.9], for which 0.011 µM corresponded to half-maximal inhibition (IC50).

`NCCCNC(=O)N1CCC(CNC(N)=NC(=O)c2nc(Cl)c(N)nc2N)(Cc2ccccc2)CC1` [Example 2.13] registered an IC50 of 0.025 µM.

For `N/C(=N\C(=O)c1nc(Cl)c(N)nc1N)NCC1(CCc2ccccc2)CCN(C(=O)NCCCCCCNC(=O)N2CCC(CCc3ccccc3)(CN/C(N)=N/C(=O)c3nc(Cl)c(N)nc3N)CC2)CC1` [Example 6.1], the IC50 turned out to be 0.097 µM.

Consider `NCCCN1CCC(CNC(N)=NC(=O)c2nc(Cl)c(N)nc2N)(Cc2ccccc2)CC1` [Example 2.14], for which half-maximal inhibition (IC50) was put at 0.12 µM.

Compound `NC(=NC(=O)c1nc(Cl)c(N)nc1N)NCC1(CCc2ccccc2)CCN(C(=O)CCC(=O)O)CC1` [Example 3.1] had an IC50 of 0.04 µM.

In turn, `COc1ccccc1C1(CNC(N)=NC(=O)c2nc(Cl)c(N)nc2N)CCN(C(=O)OC(C)(C)C)CC1` [Example 1.45] yielded an IC50 of 0.066 µM.

As for `NC(=NC(=O)c1nc(Cl)c(N)nc1N)NCC1(CCc2ccccc2)CCN(C(=O)c2ccccc2)CC1` [Example 1.5], the 50% inhibitory concentration (IC50) was 0.034 µM.

With `CN(C)CCCN1CCC(CCc2ccccc2)(CNC(N)=NC(=O)c2nc(Cl)c(N)nc2N)CC1` [Example 1.29], the IC50 turned out to be 0.086 µM.

For the compound `CC(C)(C)OC(=O)N1CCC(CNC(N)=NC(=O)c2nc(Cl)c(N)nc2N)(c2ccccc2)CC1` [Example 1.42], the IC50 is 0.025 µM.

`COC(=O)c1ccc(CCC2(CNC(N)=NC(=O)c3nc(Cl)c(N)nc3N)CCN(C(=O)NCC[N+](C)(C)C)CC2)cc1` [Example 5.2] gave an IC50 of 0.074 µM.

Regarding `NCCC(=O)N1CCC(CCc2ccccc2)(CNC(N)=NC(=O)c2nc(Cl)c(N)nc2N)CC1` [Example 2.2], half-maximal inhibition (IC50) was put at 0.019 µM.

Turning to `NC(=NC(=O)c1nc(Cl)c(N)nc1N)NCC1(CCc2ccccc2)CCN(C(=O)NCCC(=O)O)CC1` [Example 3.2], inhibition was half-maximal at 0.149 µM (IC50).

On to `CC(C)(C)OC(=O)NCCCCC(=O)N1CCC(CNC(N)=NC(=O)c2nc(Cl)c(N)nc2N)(Cc2ccccc2)CC1` [Example 1.26], for which inhibition was half-maximal at 0.019 µM (IC50).

As for `NC(=NC(=O)c1nc(Cl)c(N)nc1N)NCC1(CCc2ccccc2)CCN(Cc2ccccc2)CC1` [Example 1.6], the IC50 stood at 0.04 µM.

Compound `CCCC(=O)N1CCC(CCc2ccccc2)(CNC(N)=NC(=O)c2nc(Cl)c(N)nc2N)CC1` [Example 1.13] yielded an IC50 of 0.013 µM.

As for `COC(=O)CCC(=O)N1CCC(CNC(N)=NC(=O)c2nc(Cl)c(N)nc2N)(Cc2ccccc2)CC1` [Example 1.20], the IC50 stood at 0.075 µM.

Take `COC(=O)c1ccc(CCC2(CNC(N)=NC(=O)c3nc(Cl)c(N)nc3N)CCNCC2)cc1` [Example 2.1]: the IC50 stood at 0.394 µM.

`COC(=O)CNC(=O)N1CCC(CCc2ccccc2)(CNC(N)=NC(=O)c2nc(Cl)c(N)nc2N)CC1` [Example 1.18] showed an IC50 of 0.028 µM.

Consider `NC(=NC(=O)c1nc(Cl)c(N)nc1N)NCC1(CCc2ccccc2)CCN(C(=O)NCC(=O)O)CC1` [Example 3.3], for which the IC50 came out at 0.0101 µM.

The compound `COC(=O)c1ccc(CCC2(CNC(N)=NC(=O)c3nc(Cl)c(N)nc3N)CCN(C(=O)OC(C)(C)C)CC2)cc1` [Example 1.17] displayed an IC50 of 0.056 µM.

Regarding `COC(=O)CCC(=O)N1CCC(CCc2ccccc2)(CNC(N)=NC(=O)c2nc(Cl)c(N)nc2N)CC1` [Example 1.14], the IC50 is 0.02 µM.

`CC(C)(C)OC(=O)NCCCNC(=O)N1CCC(CCc2ccccc2)(CNC(N)=NC(=O)c2nc(Cl)c(N)nc2N)CC1` [Example 1.34] registered an IC50 of 0.01 µM.

`CC(C)(C)OC(=O)NCCCN1CCC(CNC(N)=NC(=O)c2nc(Cl)c(N)nc2N)(Cc2ccccc2)CC1` [Example 1.37] showed an IC50 of 0.064 µM.
